Laboratory results published in patent US7109193B2, “Tricyclic diazepines tocolytic oxytocin receptor antagonists” (Wyeth, priority 2001, dated 2006).

target: T1, human vasopressin V2 receptor subtype (Homo sapiens, UniProt P30518); test: Vasopressin binding in Chinese Hamster Ovary cell membranes expressing human vasopressin V2 subtype receptors; conditions: 100 nM, CHO cell membranes, [3H]arginine vasopressin, values without parentheses
T1 construct: host or cells: CHO cells (pZeoSV vector)
Description: Vasopressin Binding in Chinese Hamster Ovary Cell Membranes Expressing Human Vasopressin V2 Subtype Receptors
Chinese Hamster Ovary (CHO) cells stably transfected with the human V2 subtype receptors were obtained from M. Thibonnier, Case Western Reserve University School of Medicine, Cleveland, Ohio.
A. Passaging and Amplification of Cells:
The trypsin is removed by aspiration and the cells dislodged by tapping. Cell Culture medium (e.g. 30 mL for 1:30 split) is immediately added and mixed well to inactivate trypsin. 1 mL of detached cells is added to new culture flasks containing fresh Cell Culture medium (e.g. into 25 mL per T-150 flask), and mixed gently. The cells are incubated at 37° C. in 5% CO2. The medium is changed at 3 to 4 day interval (or as appropriate). […] All steps are done under sterile conditions. B. Membrane Preparation: The cells are washed twice gently with Hank's Balanced Salt solution (e.g. use 10 mL per T-150 flask). […] The contents are transferred to centrifuge tubes (50 mL) kept in ice bath. All subsequent steps are done at 4° C. The tubes are centrifuged at 300×g for 15 min (1380 rpm on SORVAL, Model RT6000D, using the rotor for 50 mL tubes). The supernatant is discarded and the cells suspended in homogenizing buffer (10 mM Tris-HCl containing 0.25 M sucrose and 1 mM EDTA, pH 7.4) ensuring that the volume of the buffer is about ten times the volume of the cell pellet. The cells are pooled into a centrifuge tube (50 mL) and homogenized with a Polytron at setting 6 for 10 sec. The homogenate is transferred into a Potter-Elvjehm homogenizer and homogenized with 3 strokes. The homogenate is centrifuged at 1500×g for 60 min at 4° C. (3100 rpm using SORVAL, model RT6000D, using the rotor for 50 mL tubes). The pellet is discarded. The supernatant is centrifuged at 100,000×g for 60 min. at 4° C. (Beckman L8-80M ultracentrifuge; spin at 37,500 rpm with rotor type 70 Ti for 50 mL tubes; 38,000 rpm with type 80Ti for 15 mL tubes; or 35,800 rpm with rotor type 45Ti). The supernantant is discarded and the pellet suspended in 3 to 4 mL of Tris buffer (50 mM TRIS-HCl, pH 7.4). The protein content is estimated by the Bradford or Lowry method. The volume of the membrane suspension is adjusted with the membrane buffer (50 mM Tris-HCl containing 0.1% BSA and 0.1 mM PMSF) to give 3.0 mg/mL (or as appropriate) of protein. The membranes are aliquoted and stored at −70° C. C. Radioligand Binding Assay: In wells of a 96-well format microtiter plate, is added 90, 110 or 130 μL (to make up a final volume of 200 μL) of assay buffer containing 50 mM of Tris-HCl (pH 7.4), […], 1 mg % aprotinin, 1 mg % leupeptin, 2 mg % 1,10-phenanthroline, 10 mg % trypsin inhibitor, and 0.1 mM PMSF. The inhibitors are added on the day of the experiment. The components are mixed at room temperature, and then kept in ice bath following adjustment of the pH to 7.4. […] For vasopressin and other peptide ligands 20 μL of 50% DMSO is added and the assay buffer volume is adjusted accordingly. To each well is added 50 μL of frozen membrane suspension thawed immediately prior to use and diluted in assay buffer to the required concentration (equivalent to 25 to 50 μg of protein/well as needed). 20 μL of 8 nM [^3H]arginine vasopressin ligand in the assay buffer, prepared just before use is added and incubated at room temperature for 60 min. shaking the plate on a mechanical shaker for the first 15 min. The incubation is stopped by rapid filtration of the plate contents followed by wash with ice-cold buffer (50 mM Tris-HCl, pH 7.4) using a cell harvester (Tomtek and Printed filtermat-B filter paper). The filter paper is thoroughly dried (7–12 min. in a microwave oven) and impregnated with MeltiLex B/H melt-on scintillation wax sheets and the radioactivity counted in a betaplate scintillation counter.

T1 sequence (P30518 whole entry): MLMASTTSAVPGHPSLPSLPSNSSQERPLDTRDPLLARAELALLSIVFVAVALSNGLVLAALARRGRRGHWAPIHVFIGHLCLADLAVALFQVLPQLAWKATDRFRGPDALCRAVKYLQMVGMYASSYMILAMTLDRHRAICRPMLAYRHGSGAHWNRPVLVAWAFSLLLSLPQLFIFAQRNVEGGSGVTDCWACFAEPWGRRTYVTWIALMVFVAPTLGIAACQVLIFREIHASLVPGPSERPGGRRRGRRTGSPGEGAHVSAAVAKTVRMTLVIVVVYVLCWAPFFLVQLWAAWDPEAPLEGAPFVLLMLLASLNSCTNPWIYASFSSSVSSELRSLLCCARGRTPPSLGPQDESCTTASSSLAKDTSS

| SMILES | inhibition at 0.1 µM |
| --- | --- |
| Cc1cc(C(=O)N2Cc3ccc(C(=O)N4CCC(N5CCCCC5)CC4)n3Cc3ccccc32)ccc1-c1ccccc1C(F)(F)F [Example 122, {10-[(2-Methyl-2′-(trifluoromethyl) -[1,1′-biphenyl]-4-yl)carbonyl]-10,11-dihydro-5H -pyrrolo[2,1-c][1,4]benzodiazepin-3-yl}[4-(1-piperidinyl)-1-piperidinyl]methanone] | 8% |
| COc1ccccc1-c1ccc(C(=O)N2Cc3ccc(C(=O)NCCCn4ccnc4)n3Cc3ccccc32)cc1C [Example 123, N-[3-(1H-Imidazol-1-yl)propyl]-10-[(2′-methoxy-2-methyl[1,1′-biphenyl]-4-yl)carbonyl]-10,11-dihydro-5H-pyrrolo[2,1-c][1,4]benzodiazepine-3-carboxamide] | 15% |
| Cc1ccccc1-c1ccc(C(=O)N2Cc3ccc(C(=O)NCCCn4ccnc4)n3Cc3ccccc32)cc1C [Example 124, 10-[(2,2′-Dimethyl[1,1′-biphenyl]-4-yl)carbonyl]-N-[3-(1H-imidazol-1-yl)propyl]-10,11-dihydro-5H-pyrrolo[2,1-c][1,4]benzodiazepine-3-carboxamide] | 21% |
| COc1cccc(-c2ccc(C(=O)N3Cc4ccc(C(=O)NCCCn5ccnc5)n4Cc4ccccc43)cc2C)c1 [Example 125, N-[3-(1H-Imidazol-1-yl)propyl]-10-[(3′-methoxy-2-methyl[1,1′-biphenyl]-4-yl)carbonyl]-10,11-dihydro-5H-pyrrolo[2,1-c][1,4]benzodiazepine-3-carboxamide] | 8% |
| COc1ccccc1-c1ccc(C(=O)N2Cc3ccc(C(=O)NCCCn4ccnc4)n3Cc3ccccc32)cc1 [Example 126, N-[3-(1H-Imidazol-1-yl)propyl]-10-[(2′-methoxy[1,1′-biphenyl]-4-yl)carbonyl]-10,11-dihydro-5H-pyrrolo[2,1-c][1,4]benzodiazepine-3-carboxamide] | 18% |
| Cc1ccccc1-c1ccc(C(=O)N2Cc3ccc(C(=O)NCCCn4ccnc4)n3Cc3ccccc32)cc1 [Example 127, N-[3-(1H-Imidazol-1-yl)propyl]-10-[(2′-methyl[1,1′-biphenyl]-4-yl)carbonyl]-10,11-dihydro-5H-pyrrolo[2,1-c][1,4]benzodiazepine-3-carboxamide] | 3% |
| COc1cc(C(=O)N2Cc3ccc(C(=O)NCCCn4ccnc4)n3Cc3ccccc32)ccc1-c1ccccc1C [Example 128, N-[3-(1H-Imidazol-1-yl)propyl]-10-[(2-methoxy-2′-methyl[1,1′-biphenyl]-4-yl)carbonyl]-10,11-dihydro-5H-pyrrolo[2,1-c][1,4]benzodiazepine-3-carboxamide] | 17% |
| COc1cc(-c2ccccc2C)c(Cl)cc1C(=O)N1Cc2ccc(C(=O)NCCCn3ccnc3)n2Cc2ccccc21 [Example 129, 10-[(6-Chloro-3-methoxy-2′-methyl[1,1′-biphenyl]-4-yl)carbonyl]-N-[3-(1H-imidazol-1-yl)propyl]-10,11-dihydro-5H-pyrrolo[2,1-c][1,4]benzodiazepine-3-carboxamide] | 5% |
| COc1cccc(-c2cc(OC)c(C(=O)N3Cc4ccc(C(=O)NCCCn5ccnc5)n4Cc4ccccc43)cc2Cl)c1 [Example 130, 10-[(6-Chloro-3,3′-dimethoxy[1,1′-biphenyl]-4-yl)carbonyl]-N-[3-(1H-imidazol-1-yl)propyl]-10,11-dihydro-5H-pyrrolo[2,1-c][1,4]benzodiazepine-3-carboxamide] | 5% |
| COc1cc(C(=O)N2Cc3ccc(C(=O)NCCCn4ccnc4)n3Cc3ccccc32)ccc1-c1cccc2ccccc12 [Example 131, N-[3-(1H-Imidazol-1-yl)propyl]-10-[3-methoxy-4-(1-naphthyl)benzoyl]-10,11-dihydro-5H-pyrrolo[2,1-c][1,4]benzodiazepine-3-carboxamide] | 13% |
| COc1ccccc1-c1ccc(C(=O)N2Cc3ccc(C(=O)NCCCn4ccnc4)n3Cc3ccccc32)cc1OC [Example 132, 10-[(2,2′-Dimethoxy[1,1′-biphenyl]-4-yl)carbonyl]-N-[3-(1H-imidazol-1-yl)propyl]-10,11-dihydro-5H-pyrrolo[2,1-c][1,4]benzodiazepine-3-carboxamide] | 16% |
| COc1cccc(-c2ccc(C(=O)N3Cc4ccc(C(=O)NCCCn5ccnc5)n4Cc4ccccc43)cc2OC)c1 [Example 133, 10-[(2,3′-Dimethoxy[1,1′-biphenyl]4-yl)carbonyl]-N-[3-(1H-imidazol-1-yl)propyl]-10,11-dihydro-5H-pyrrolo[2,1-c][1,4]benzodiazepine-3-carboxamide] | 8% |
| O=C(NCCCn1ccnc1)c1ccc2n1Cc1ccccc1N(C(=O)c1ccc(-c3cccc4ccccc34)cc1Cl)C2 [Example 134, 10-[2-Chloro-4-(1-naphthyl)benzoyl]-N-[3-(1H-imidazol-1-yl)propyl]-10,11-dihydro-5H-pyrrolo[2,1-c][1,4]benzodiazepine-3-carboxamide] | 16% |
| Cc1cc(C(=O)N2Cc3ccc(C(=O)NCCCn4ccnc4)n3Cc3ccccc32)ccc1-c1ccccc1C(F)(F)F [Example 135, N-[3-(1H-Imidazol-1-yl)propyl]-10-{[2-methyl-2′-(trifluoromethyl)[1,1′-biphenyl]-4-yl]carbonyl}-10,11-dihydro-5H-pyrrolo[2,1-c][1,4]benzodiazepine-3-carboxamide] | 1% |
| COc1ccccc1-c1ccc(C(=O)N2Cc3ccc(C(=O)N4CCC(N5CCCC5)CC4)n3Cc3ccccc32)cc1C [Example 137, {10-[(2′-Methoxy-2-methyl[1,1′-biphenyl]-4-yl)carbonyl]-10,11-dihydro-5H-pyrrolo[2,1-c][1,4]benzodiazepin-3-yl}[4-(1-pyrrolidinyl)-1-piperidinyl]methanone] | -4% |
| Cc1ccccc1-c1ccc(C(=O)N2Cc3ccc(C(=O)N4CCC(N5CCCC5)CC4)n3Cc3ccccc32)cc1C [Example 138, {10-[(2,2′-Dimethyl[1,1′-biphenyl]-4-yl)carbonyl]-10,11-dihydro-5H-pyrrolo[2,1-c][1,4]benzodiazepin-3-yl}[4-(1-pyrrolidinyl)-1-piperidinyl]methanone] | 29% |
| COc1cccc(-c2ccc(C(=O)N3Cc4ccc(C(=O)N5CCC(N6CCCC6)CC5)n4Cc4ccccc43)cc2C)c1 [Example 139, {10-[(3′-Methoxy-2-methyl[1,1′-biphenyl]-4-yl)carbonyl]-10,11-dihydro-5H-pyrrolo[2,1-c][1,4]benzodiazepin-3-yl}[4-(1-pyrrolidinyl)-1-piperidinyl]methanone] | 12% |
| COc1ccccc1-c1ccc(C(=O)N2Cc3ccc(C(=O)N4CCC(N5CCCC5)CC4)n3Cc3ccccc32)cc1 [Example 140, {10-[(2′-Methoxy[1,1′-biphenyl]-4-yl)carbonyl]-10,11-dihydro-5H-pyrrolo[2,1-c][1,4]benzodiazepin-3-yl}[4-(1-pyrrolidinyl)-1-piperidinyl]methanone] | 29% |
| Cc1ccccc1-c1ccc(C(=O)N2Cc3ccc(C(=O)N4CCC(N5CCCC5)CC4)n3Cc3ccccc32)cc1 [Example 141, {10-[(2′-Methyl[1,1′-biphenyl]-4-yl)carbonyl]-10,11-dihydro-5H-pyrrolo[2,1-c][1,4]benzodiazepin-3-yl}[4-(1-pyrrolidinyl)-1-piperidinyl]methanone] | 8% |
